From patent publication US20240398699A1 (COSMO TECHNOLOGIES LTD., priority 2017, published 2024)
In brackets after ≈: the same amount, converted by molar mass. Read-outs that look alike come from different tables or passages of the source. Values belong to the compound of their own block, whether it stands above or below them.

Columns and labels:
[1] = tested on: Methanobrevibacter smithii (DSMZ 11975); test: MIC (Minimum Inhibiting Concentration) on bacterial strain; format: cell-based
[2] = tested on: NFκB transcriptional activity; test: NFκB luciferase reporter cell line stimulated with PMA, TNFα or LPS; format: cell-based; conditions: for IC50: 24 hr incubation
Method: To establish that NFκB inhibition occurs upon rifamycin-induced PXR activation, a reporter cell line expressing full length NFκB and harboring luciferase reporter gene functionally linked to upstream NFκB genetic response elements, was stimulated with either PMA, TNFα or LPS to induce NFκB. Rifamycin or rifaximin were dose-titrated onto these stimulated cells. After 24 hr incubation, luminescence correlating to NFκB transcriptional activity was quantified.

[3] = tested on: NFkB transcription factor; test: NFkB reporter assay (Indigo Biosciences), antagonist mode, TNFα stimulated human kidney epithelial cells; format: cell-based; conditions: for IC50: Homo sapiens, Epithelial cell, 30 ng/mL TNFα, 24 hours, 2 independent experiments, read-out: Antagonism of NFkB activity IC50 Molar (95% CI range)
Method: The NFkB nuclear receptor assay system from Indigo Biosciences utilizes human kidney epithelial cells transiently transfected with an NF-kB reporter. The NFkB biologic activity measured as transcriptional activity from these reporter cells demands the same orchestration of all intracellular molecular interactions and events that can be expected to occur in vivo. Cells were treated under antagonist mode in the presence of 30 ng/mL TNFα to stimulate the NFkB inflammatory cascade. […] After 24 hours, luminescence which is proportional to NFkB transcriptional activity was quantitated. […] The p value was calculated using Prism parametric, paired t test analysis.

human PXR = target: T1, human PXR (Homo sapiens, UniProt O75469); test: PXR nuclear receptor luciferase reporter assay (Indigo Biosciences), agonist mode; format: cell-based; conditions: for EC50: 3 independent experiments, read-out: Agonism of PXR transcriptional activity expressed as EC50 Molar (95% CI range)
T1 construct: host or cells: proprietary human cells engineered to express the hybrid receptor
T1 sequence (O75469 146-433 limits assumed): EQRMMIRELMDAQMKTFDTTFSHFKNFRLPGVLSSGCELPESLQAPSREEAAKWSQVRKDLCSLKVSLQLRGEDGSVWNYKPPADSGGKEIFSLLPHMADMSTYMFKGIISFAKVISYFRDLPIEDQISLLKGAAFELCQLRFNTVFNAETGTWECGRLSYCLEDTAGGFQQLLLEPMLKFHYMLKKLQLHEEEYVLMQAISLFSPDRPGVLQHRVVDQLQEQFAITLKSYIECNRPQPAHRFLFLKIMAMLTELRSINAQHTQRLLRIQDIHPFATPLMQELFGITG
Excerpt: This assay product from Indigo Biosciences (Pennsylvania, USA) utilizes cells that express a hybrid form of human PXR. The N-terminal sequence encoding the PXR DNA binding domain (DBD) was substituted with that of the yeast GAL4-DBD. The native PXR ligand binding domain (LBD) and other C-terminal domains remain intact and functional. Ligand interaction activates the receptor, causing it to bind to the GAL4 DNA binding sequence, which is functionally linked to a resident luciferase reporter gene. Thus, quantifying changes in luciferase activity in the treated reporter cells provides a sensitive surrogate measure of the changes in PXR activity. The principle application of this reporter assay system is in the screening of test samples to quantify any functional activity, either agonist or antagonist, that they may exert against human PXR. […] The p value was calculated using Prism parametric, paired t test analysis.

[4] = tested on: IL1β-induced synthesis of IL-8 in colonic epithelial cells; test: IL1β-induced IL-8 synthesis in colonic epithelial cells; format: cell-based
Excerpt: PMA or diacyl glycerol-activated PKC is important for T cell receptor or IgE-induced NFκB that occurs in immune cells, like T cells and mast cells, respectively. On the other hand, TNF or LPS-induced NFκB that occurs in colonic epithelial cells requires other signaling factors (TRAFs, TNFR-associated factors). Most importantly, for its relevance in IBS or IBD, NFκB biologic function was confirmed in colonic epithelial cells. […] These cell-dependent requirements for inducing inflammation imply that by acting on various target cells, rifamycin's anti-inflammatory potential is broad because dysregulated immune and epithelial cell interactions contribute to the pathogenesis of several GI disorders.

[5] = Safety and tolerability in healthy volunteers; format: in vivo, human
[6] = PMA stimulus, read-out: IC50, antagonism of PMA-induced NFκB activity
[7] = up to the highest concentration tested

SMILES: Cc1ncc([N+](=O)[O-])n1CCO [Metronidazole]
MIC ([1]; DSMZ11975, read-out: MIC): 25 µg/mL (≈ 146 µM)

SMILES: CO[C@H]1/C=C/O[C@@]2(C)Oc3c(C)c(O)c4c(O)c(cc(O)c4c3C2=O)NC(=O)/C(C)=C\C=C\[C@H](C)[C@H](O)[C@@H](C)[C@@H](O)[C@@H](C)[C@H](OC(C)=O)[C@@H]1C [Rifamycin SV, (2S,12Z,14E,16S,17S,18R,19R,20R,21S,22R,23S,24E)-21-(acetyloxy)-6,9,17,19-tetrahydroxy-23-methoxy-2,4,12,16,18,20,22-heptamethyl-1,11-dioxo-1,2-dihydro-2,7-(epoxypentadeca[1,11,13]trienimino)naphtho[2,1-b]furan-5-ol]
IL1β-induced synthesis of IL-8 [4]: significantly inhibited
change in vital signs, BW, ECGs or laboratory parameters ([5]; after treatment, 600 mg t.i.d., 14 days): No significant change
change in liver or kidney functions ([5]; during the multiple doses treatment): No significant change
discontinuation due to AEs ([5]; tablets of Example 1, 600 mg t.i.d., 14 days): no subject discontinued the study due to AEs
severe AEs ([5]; tablets of Example 1, 600 mg t.i.d., 14 days, 18 healthy subjects): No severe AEs were reported
IC50 ([2]; LPS stimulus, read-out: IC50, antagonism of LPS-induced NFκB activity): 3490 nM
times higher potency than rifaximin, PMA-induced NFκB activity ([2]; PMA stimulus): 6 times
IC50 [2, 6]: 15.6 nM
IC50 ([2]; TNFα stimulus, read-out: IC50, antagonism of TNFα-induced NFκB activity): 14800 nM
IC50 [3]: 23 nM
times more potent than rifaximin at inhibiting NFkB transcriptional activity ([3]; vs rifaximin): 4000 times
EC50 (human PXR): 6.08 nM
times more potent than rifaximin in stimulating PXR transcriptional activity (human PXR; from rifaximin at 30 μM vs rifamycin SV at 0.3 μM): 250 times
times more potent than rifampicin (PXR) (human PXR; vs rifampicin, positive control): 180 times
times more potent than rifaximin at stimulating PXR transcriptional activity (human PXR; vs rifaximin): 200-440 times

SMILES: NC[C@@H]1O[C@H](O[C@H]2[C@@H](O)[C@H](O[C@@H]3[C@@H](O)[C@H](N)C[C@H](N)[C@H]3O[C@H]3O[C@H](CN)[C@@H](O)[C@H](O)[C@H]3N)O[C@@H]2CO)[C@H](N)[C@@H](O)[C@@H]1O [Neomycin]
MIC [1]: >100 µg/mL

The next lines start with results.

MIC ([1]; DSMZ11975, read-out: MIC): 25 µg/mL (≈ 31.8 µM)
IC50 [2, 6]: 93.9 nM
IC50 [3]: 83000 nM
EC50 (human PXR): 1800 nM
times less potent than rifamycin SV at 0.3 μM (PXR) (human PXR; rifaximin at 30 μM): 2.5 times
SMILES: CO[C@H]1/C=C/O[C@@]2(C)Oc3c(C)c(O)c4c(O)c(c5c(nc6cc(C)ccn65)c4c3C2=O)NC(=O)/C(C)=C\C=C\[C@H](C)[C@H](O)[C@@H](C)[C@@H](O)[C@@H](C)[C@H](OC(C)=O)[C@@H]1C [Rifaximin]
inhibition of LPS-induced NFκB activity [2, 7]: did not inhibit
inhibition of TNFα-induced NFκB activity [2, 7]: did not inhibit

MIC [1]: <1 µg/mL
SMILES: CO[C@H]1/C=C/O[C@@]2(C)Oc3c(C)c([O-])c4c(O)c(cc(O)c4c3C2=O)NC(=O)/C(C)=C\C=C\[C@H](C)[C@H](O)[C@@H](C)[C@@H](O)[C@@H](C)[C@H](OC(C)=O)[C@@H]1C.[Na+] [Rifamycin SV sodium]
